What was measured:
[1] = system: peripheral blood mononuclear cells (PBMC), T cells; test: ELISpot assay, gamma-interferon release (SFC) after stimulation with a-synuclein epitope pools; type: cell-based, human; details: for Pool +: IFNg, Pool Stimulated, number of donors with a positive response, Donors tested 1
How it was run: (§1)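 Samples came from 44 PD patients and 24 matched controls, tested blindly. Their PBMC were stimulated for 22 hours at 37 C with α-synuclein peptide pools, and pools that responded were resolved into individual epitopes.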

[2] = system: peripheral blood mononuclear cells (PBMC), T cells; test: ELISpot assay, IL-5 release (SFC) after stimulation with a-synuclein epitope pools; type: cell-based, human
How it was run: as §1

[3] = Patients Summary, PD patients, of donors tested (peptide)
[4] = Patients Summary, PD patients, single peptide
[5] = number of donors positive to the single peptide, second 'Pool Stimulated' section (from r296), 12 donors tested
[6] = peptide + / donors tested (peptide), second 'Pool Stimulated' section (from r296), 12 donors tested
[7] = single peptide, second 'Pool Stimulated' section (from r296), 12 donors tested
[8] = Patients Summary, Phospho pool peptides
[9] = Patients Summary, Phospho pool peptides, 10 donors tested
[10] = peptides of pool 'Poshpho', 8 donors tested
[11] = peptides of pool 'Poshpho', 8 donors tested, number of donors positive

Substance	Pool + [1]	IFNg Peptide + (donors positive to the peptide) [1, 3]	IFNg Response Frequency [1, 4] [%]	IFNg Total SFC [1, 4] [SFC]	IFNg Peptide + [1, 5]	IFNg Response Frequency [1, 6] [%]	IFNg Total SFC [1, 7] [SFC]	IL-g Peptide + (donors positive to the peptide) [2, 3]	IL-g Response Frequency [2, 4] [%]	IL-g Total SFC [2, 4] [SFC]	IL-g Peptide + [2, 5]	IL-g Response Frequency [2, 6] [%]	IL-g Total SFC [2, 7] [SFC]	further results
3521.006 (VATVAEKTKE; listed as Homo sapiens)	1	0	0	0	0	0	0	0	0	0	0	0	0	
3521.0021 (PGKTKEGVL; listed as Homo sapiens)	0	1	13	36	0	0	0	0	0	0	0	0	0	IFNg Avg SFC [1, 4]: 36 SFC
3521.0084 (YVGSKTKEGVVHGVA; listed as Homo sapiens)	0	0	0	0				0	0	0				
3521.0022 (GSIAAATGF; listed as Homo sapiens)	0	0	0	0	0	0	0	0	0	0	0	0	0	
3521.0051 (EEGAPQEGIL; listed as Homo sapiens)	1	1	25	427	1	50	554	0	0	0	1	50	1028	IFNg Avg SFC [1, 4]: 427 SFC; IFNg Avg SFC [1, 7]: 554 SFC; IL-g Avg SFC [2, 7]: 1028 SFC
3521.0014 (KTVEGAGSI; listed as Homo sapiens)	0	0	0	0	0	0	0	0	0	0	0	0	0	
3521.0075 (KQGVAEAPGKTKEGV; listed as Homo sapiens)	1	3	38	209	0	0	0	1	13	58	1	50	147	IFNg Avg SFC [1, 4]: 70 SFC; IL-g Avg SFC [2, 4]: 58 SFC; IL-g Avg SFC [2, 7]: 147 SFC
3521.0085 (EGVVHGVATVAEKTK; listed as Homo sapiens)	1	0	0	0	0	0	0	0	0	0	1	50	80	IL-g Avg SFC [2, 7]: 80 SFC
3521.0086 (ATVAEKTKEQVTNVG; listed as Homo sapiens)	1	0	0	0	0	0	0	0	0	0	0	0	0	
3521.004 (DNEAYEMPSE; listed as Homo sapiens)	0	0	0	0	0	0		0	0	0	0	0	0	Pool + ([1]; pool 'Phospho' (phosphorylated peptides)): 0; IFNg Avg SFC [1, 8]: 364 SFC; IFNg Response Frequency [1, 8]: 20%; IFNg Total SFC [1, 8]: 727 SFC; IFNg Peptide + (donors positive to the peptide) [1, 9]: 2; IFNg Response Frequency [1, 10]: 0%; IFNg Total SFC [1, 10]: 0 SFC; IFNg Peptide + [1, 11]: 0; IL-g Avg SFC [2, 8]: 203 SFC; IL-g Response Frequency [2, 8]: 20%; IL-g Total SFC [2, 8]: 406.3 SFC; IL-g Peptide + (donors positive to the peptide) [2, 9]: 2; IL-g Response Frequency [2, 10]: 0%; IL-g Total SFC [2, 10]: 0 SFC; IL-g Peptide + [2, 11]: 0
3521.0003 (SIAAATGFV; listed as Homo sapiens)	0	0	0	0	1	50	33.3	0	0	0	0	0	0	IFNg Avg SFC [1, 7]: 33.3 SFC
3521.0059 (AEAAGKTKEG; listed as Homo sapiens)	1	0	0	0	1	50	120	1	13	71	0	0	0	IFNg Avg SFC [1, 7]: 120 SFC; IL-g Avg SFC [2, 4]: 71 SFC

Reference: patent US20170184612A1, “USE OF LEUKOCYTES AND NOVEL BIOMARKERS IN THE DIAGNOSIS, CONFIRMATION, AND TREATMENT OF A NEUROLOGICAL DISORDER” (The Trustees of Columbia University in the City of New York, priority 2014, published 2017)
